Where a name gives a salt, the structure may show the parent alone.
What follows are compounds tested against T1, recombinant guanylate cyclase reporter cell line (Rattus norvegicus, UniProt P19686+P20595) (assay: B-2. Action on recombinant guanylate cyclase reporter cell line). Conditions: MEC = minimal effective concentration; in some cases mean values from individual determinations.
T1 construct: expressed in transfected cells
T1 sequence (P20595 1-619): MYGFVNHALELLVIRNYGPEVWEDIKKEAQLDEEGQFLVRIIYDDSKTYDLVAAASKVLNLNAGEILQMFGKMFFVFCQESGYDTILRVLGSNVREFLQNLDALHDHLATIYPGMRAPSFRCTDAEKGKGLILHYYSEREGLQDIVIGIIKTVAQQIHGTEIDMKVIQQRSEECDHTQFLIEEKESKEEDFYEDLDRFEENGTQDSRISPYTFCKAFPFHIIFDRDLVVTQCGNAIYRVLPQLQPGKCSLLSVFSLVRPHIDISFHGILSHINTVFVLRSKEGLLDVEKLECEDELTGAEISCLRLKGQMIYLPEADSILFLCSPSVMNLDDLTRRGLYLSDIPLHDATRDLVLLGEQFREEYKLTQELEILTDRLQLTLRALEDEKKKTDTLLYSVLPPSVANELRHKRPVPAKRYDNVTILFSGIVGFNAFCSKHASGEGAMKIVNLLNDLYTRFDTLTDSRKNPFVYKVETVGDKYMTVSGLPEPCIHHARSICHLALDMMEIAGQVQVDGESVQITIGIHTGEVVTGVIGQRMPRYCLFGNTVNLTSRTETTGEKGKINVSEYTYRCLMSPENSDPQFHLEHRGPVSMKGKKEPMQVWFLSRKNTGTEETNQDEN
T1 sequence (P19686 1-690): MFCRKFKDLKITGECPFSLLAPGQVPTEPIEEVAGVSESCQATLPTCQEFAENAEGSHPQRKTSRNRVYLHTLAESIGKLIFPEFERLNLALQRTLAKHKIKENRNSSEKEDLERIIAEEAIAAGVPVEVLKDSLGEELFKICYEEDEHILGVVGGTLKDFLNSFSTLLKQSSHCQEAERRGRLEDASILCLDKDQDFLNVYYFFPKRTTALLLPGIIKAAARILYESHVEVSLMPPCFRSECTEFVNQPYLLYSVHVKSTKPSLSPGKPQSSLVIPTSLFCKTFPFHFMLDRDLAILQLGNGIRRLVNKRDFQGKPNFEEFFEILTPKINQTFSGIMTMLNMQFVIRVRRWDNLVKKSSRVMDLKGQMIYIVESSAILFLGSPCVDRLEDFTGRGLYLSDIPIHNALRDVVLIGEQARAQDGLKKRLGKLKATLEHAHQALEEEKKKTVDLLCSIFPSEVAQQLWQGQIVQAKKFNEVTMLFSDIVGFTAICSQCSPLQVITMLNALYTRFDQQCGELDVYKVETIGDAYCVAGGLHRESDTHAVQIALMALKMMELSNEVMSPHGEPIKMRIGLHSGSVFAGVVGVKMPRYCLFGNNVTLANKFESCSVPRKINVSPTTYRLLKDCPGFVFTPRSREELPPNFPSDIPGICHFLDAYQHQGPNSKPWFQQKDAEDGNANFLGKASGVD
Type: cell-based
In short: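 Each compound is applied to a cell line engineered with a reporter for recombinant guanylate cyclase. The minimal effective concentration is then noted, in part as a mean across separate determinations.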

Row | MEC [µM] | Compound
1 | 0.10 | Cc1cc(OCc2c(F)cccc2F)c2nc(C)c(C(=O)NCC(N)CC(F)(F)F)n2c1 (single isomer, unassigned) [Example 128, ent-N-(2-Amino-4,4,4-trifluorobutyl)-8-[(2,6-difluorobenzyl)oxy]-2,6-dimethylimidazo[1,2-a]-pyridine-3-carboxamide]
2 | 0.10 | Cc1cc(OCc2c(F)cccc2F)c2nc(C)c(C(=O)NCC(C)(N)C3CC3)n2c1 (single isomer, unassigned; enantiomer b) [Example 261, ent-N-(2-Amino-2-cyclopropylpropyl)-8-[(2,6-difluorobenzyl)oxy]-2,6-dimethylimidazo[1,2-a]-pyridine-3-carboxamide (Enantiomer B)]
3 | 1.00 | Cc1nc2c(OCc3c(F)cccc3F)cc(Cl)cn2c1C(=O)NCC(N)COC(C)C (racemic) [Example 217, rac-N-(2-Amino-3-isopropoxypropyl)-6-chloro-8-[(2,6-difluorobenzyl)oxy]-2-methylimidazo[1,2-a]pyridine-3-carboxamide]
4 | 0.65 | Cc1cc(OCc2c(F)cccc2F)c2nc(C)c(C(=O)NCC(C)(N)CO)n2c1 (single isomer, unassigned; enantiomer b) [Example 269, ent-N-(2-Amino-3-hydroxy-2-methylpropyl)-8-[(2,6-difluorobenzyl)oxy]-2,6-dimethylimidazo-[1,2-a]pyridine-3-carboxamide (Enantiomer B)]
5 | 0.30 | Cc1nc2c(OCc3c(F)cccc3F)cccn2c1C(=O)NCC(N)C(F)(F)C(F)F (single isomer, unassigned) [Example 231, ent-N-(2-Amino-3,3,4,4-tetrafluorobutyl)-8-[(2,6-difluorobenzyl)oxy]-2-methylimidazo[1,2-a]-pyridine-3-carboxamide]
6 | 0.10 | CCCC(C)(N)CNC(=O)c1c(C)nc2c(OCc3c(F)cccc3F)cc(C)cn12 (racemic) [Example 232, rac-N-(2-Amino-2-methylpentyl)-8-[(2,6-difluorobenzyl)oxy]-2,6-dimethylimidazo[1,2-a]pyridine-3-carboxamide]
7 | 0.30 | Cc1nc2c(OCc3c(F)cccc3F)cc(Cl)cn2c1C(=O)NCC(C)(N)CC(C)C (racemic) [Example 225, rac-N-(2-Amino-2,4-dimethylpentyl)-6-chloro-8-[(2,6-difluorobenzyl)oxy]-2-methylimidazo[1,2-a]pyridine-3-carboxamide]
8 | 0.30 | Cc1cc(OCc2c(F)cccc2F)c2nc(C)c(C(=O)NC[C@H]3CCCCN3)n2c1 [Example 173, 8-[(2,6-Difluorobenzyl)oxy]-2,6-dimethyl-N-[(2R)-piperidin-2-ylmethyl]imidazo[1,2-a]pyridine-3-carboxamide]
9 | 0.30 | Cc1cc(OCc2c(F)cccc2F)c2nc(C)c(C(=O)NCC(N)C(C)C)n2c1 (single isomer, unassigned) [Example 224, ent-N-(2-Amino-3-methylbutyl)-8-[(2,6-difluorobenzyl)oxy]-2,6-dimethylimidazo[1,2-a]pyridine-3-carboxamide]
10 | 3.00 | Cc1cc(OCc2c(F)cccc2F)c2nc(C)c(C(=O)NC3CCC3N)n2c1 (single isomer, unassigned; enantiomer a) [Example 328, ent-N-(2-aminocyclobutyl)-8-[(2,6-difluorobenzyl)oxy]-2,6-dimethylimidazo[1,2-a]pyridine-3-carboxamide (Enantiomer A)]

Second part, the compound before the results:

Row | Compound | MEC [µM]
11 | Cc1cc(OCc2c(F)cccc2F)c2nc(C)c(C(=O)NC34CC5CC(CC(N)(C5)C3)C4)n2c1 [Example 365, N-(3-aminoadamantan-1-yl)-8-[(2,6-difluorobenzyl)oxy]-2,6-dimethylimidazo[1,2-a]pyridine-3-carboxamide Formate] | 1.00
12 | Cc1nc2c(OCc3c(F)cccc3F)cccn2c1C(=O)NC(CN)c1ccccc1 (single isomer, unassigned; enantiomer b) [Example 18, ent-N-(2-Amino-1-phenylethyl)-8-[(2,6-difluorobenzyl)oxy]-2-methylimidazo[1,2-a]pyridine-3-carboxamide (Enantiomer B)] | 0.55
13 | Cc1cc(OCc2c(F)cccc2F)c2nc(C)c(C(=O)NCC(C)(N)Cc3ccc(F)cc3)n2c1 (racemic) [Example 296, rac-N-[2-amino-3-(4-fluorophenyl)-2-methylpropyl]-8-[(2,6-difluorobenzyl)oxy]-2,6-dimethylimidazo[1,2-a]pyridine-3-carboxamide] | 0.10
14 | Cc1cc(OCc2c(F)cccc2F)c2nc(C)c(C(=O)NC(CN)c3ccc([N+](=O)[O-])cc3)n2c1 (racemic) [Example 384, rac-N-[2-amino-1-(4-nitrophenyl)ethyl]-8-[(2,6-difluorobenzyl)oxy]-2,6-dimethylimidazo[1,2-a]pyridine-3-carboxamide] | 0.30
15 | Cc1nc2c(OCc3c(F)cccc3F)cccn2c1C(=O)NC(CN)c1ccc(Cl)cc1 (single isomer, unassigned; enantiomer b) [Example 15, ent-N-[2-Amino-1-(4-chlorophenyl)ethyl]-8-[(2,6-difluorobenzyl)oxy]-2-methylimidazo[1,2-a]-pyridine-3-carboxamide (Enantiomer B)] | 0.53
16 | Cc1nc2c(OCc3c(F)cccc3F)cccn2c1C(=O)NCC(N)COC(C)C (racemic) [Example 205, rac-N-(2-Amino-3-isopropoxypropyl)-8-[(2,6-difluorobenzyl)oxy]-2-methylimidazo[1,2-a]-pyridine-3-carboxamide] | 0.30
17 | CCCC[C@H](CNCCOC)NC(=O)c1c(C)nc2c(OCc3c(F)cccc3F)cccn12 [Example 70, ent-8-[(2,6-difluorobenzyl)oxy]-N-{(2R)-1-[(2-methoxyethyl)amino]hexan-2-yl}-2-methylimidazo[1,2-a]pyridine-3-carboxamide] | 1.00
18 | CCCC(C)(N)CNC(=O)c1c(C)nc2c(OCc3c(F)ccc(F)c3F)cc(C)cn12 (single isomer, unassigned) [Example 304, ent-N-(2-amino-2-methylpentyl)-2,6-dimethyl-8-[(2,3,6-trifluorobenzyl)oxy]imidazo[1,2-a]pyridine-3-carboxamide] | 0.10
19 | Cc1nc2c(OCc3c(F)cccc3F)cccn2c1C(=O)NC(CNCC(F)(F)F)c1ccc(F)c(F)c1 (single isomer, unassigned; ent-8) [Example 222, ent-8-[(2,6-Difluorobenzyl)oxy]-N-{1-(3,4-difluorophenyl)-2-[(2,2,2-trifluoroethyl)amino]ethyl}-2-methylimidazo[1,2-a]pyridine-3-carboxamide] | 0.30
20 | Cc1nc2c(OCc3c(F)cccc3F)cc(Cl)cn2c1C(=O)NCC1(N)CCC1 [Example 155, N-[(1-aminocyclobutyl)methyl]-6-chloro-8-[(2,6-difluorobenzyl)oxy]-2-methylimidazo[1,2-a]-pyridine-3-carboxamide trifluoroacetate] | 0.30
21 | CCC(C)(N)CNC(=O)c1c(C)nc2c(OCc3c(F)ccc(F)c3F)cc(C)cn12 (single isomer, unassigned; enantiomer a) [Example 300, ent-N-(2-amino-2-methylbutyl)-2,6-dimethyl-8-[(2,3,6-trifluorobenzyl)oxy]imidazo[1,2-a]pyridine-3-carboxamide (Enantiomer A) Hydrochloride] | 0.10
22 | Cc1nc2c(OCc3c(F)cccc3F)cc(Cl)cn2c1C(=O)NC(C)CN (stereo not drawn) [Example 22, ent-N-(1-aminopropan-2-yl)-6-chloro-8-[(2,6-difluorobenzyl)oxy]-2-methylimidazo[1,2-a]-pyridine-3-carboxamide] | 0.30
23 | Cc1nc2c(OCc3c(F)cccc3F)cccn2c1C(=O)NC1CC2CCCC(C1)N2C (centres unmarked) [Example 90, 8-[(2,6-difluorobenzyl)oxy]-2-methyl-N-(9-methyl-9-azabicyclo[3.3.1]non-3-yl)imidazo[1,2-a]pyridine-3-carboxamide] | 0.10
